Consider 1 compound from EP4050002A1, “ANTI-PROLIFERATIVE AGENTS” (First Health Pharmaceuticals B.V., priority 2021, dated 2022).

The subject of one experiment is H9. Put plainly: Cytotoxicity, cell viability. The following applies: Homo sapiens; H9, 72 hours of incubation, ATP-based method. The procedure:
The anti-tumor activity of the compounds of the present invention was evaluated as the effect on the proliferation and survival of tumor cells by counting the number of living cells in presence or absence of the compounds ("cell count method"), and as the effect on the viability and metabolic activity of the cells, by using particular substrates that are converted by cellular enzymes into coloured or luminescent products, proportionally with metabolic activity and state of the cell, such as the MTS tetrazolium compound ("MTS method") or luciferin ("ATP-based method") respectively.
Cells were seeded at 3 to 5 x 10^4 cells/well density depending on cell lines and maintained at 37°C in 5% CO2. After 24 hours cells were treated with ascending concentrations of the investigational compounds and the reference (5-fluoro-Uracyl) in a range from 0 to 100 µM. […] After 72 h of incubation with compounds, the cells were detached with trypsin and re-suspended in 1 ml of complete medium; the cell number was evaluated using a Z2 Coulter Counter ("cell count method") (Attallah and Johnson, A simple highly sensitive methods for the determination of cell viability using an electronic particle analyzer, Coulter counter J. Immunol. Methods. 1981, 41, 155; Leonardi et al., Activated kinase screening identifies the IKBKE oncogene as a positive regulator of autophagy. Autophagy, 2019, 15, 312). […]

The next experiment concerns SK-LU1. In words: Cytotoxicity, cell count method. The format is cell-based. The following applies: Homo sapiens, SK-LU-1, SK-LU1, 72 hours of incubation.
The test system of a further experiment is A549. In words: Cytotoxicity, cell count method. The format is cell-based. Conditions: Homo sapiens, A549, 72 hours of incubation.

Turning to `CCCCc1cn(-c2ccc(-c3nnc(-c4ccccc4C(F)(F)F)o3)cc2)nn1` [Compound 5], the results for the IC50 with H9, in the experiment on SK-LU1 and with A549 were 50000 nM, 420 nM and 350 nM, respectively.
